Data published in US20240041898A9, “NEUROSTEROIDS AND ENANTIOMERS THEREOF FOR THE PREVENTION AND TREATMENT OF NEURODEGENERATIVE CONDITIONS” (priority 2019, published 2024).
Several values for one entry are separate records, joined by “and”; a condition that tells them apart may be missing. Equal entries are not always repeated.

Key:
[1] = system: LC3-II; test: Rat in vivo OHT model, Western blot of LC3-II; conditions: in vivo OHT eyes, 3 weeks after microbead injection, relative units, control = 1.00; for LC3-II expression (FIG. 6B), individual experiments 1-4: single values
Protocol: Example 7. Rat in vivo OHT model induced by intracameral injection of microbeads—For induction of ocular hypertension (OHT) in vivo, sterile 6 μm polystyrene microbeads were injected into the anterior chamber of the left eye of each animal using a single-step, sclero-corneal tunnel approach with a 35G nanoneedle (FIG. 4A). […] After stabilization of elevated IOP, animals were randomly divided into 3 groups (non-treated OHT, AlloP injection, and ent-AlloP injection). AlloP and ent-AlloP were administered as a one-time intravitreal injection one week following bead injection. Non-treated OHT animals received sterile vehicle intravitreally. As a further control, vehicle was intravitreally injected 7 days after intracameral administration of 10 μl of PBS. Three weeks after bead injections, IOP was 26.7±3.7 mmHg in non-treated OHT eyes compared to 9.9±0.9 mmHg in control eyes.
Rat in vivo OHT model—8-week old male Sprague-Dawley rats were deeply anesthetized with an intraperitoneal injection of a mixture of medetomidine hydrochloride (Cat #133-17474, CAS. No 86347-15-1, Wako Pure Chemical Industries Ltd., Osaka, Japan, 0.15 mg/kg), midazolam (Cat #135-13791, CAS. No 58786-99-5, Wako Pure Chemical Industries Ltd., 2 mg/kg), and butorphanol tartrate (Cat #021-19001, CAS. No […], Wako Pure Chemical Industries Ltd., 2.5 mg/kg), and intraocular pressure was increased unilaterally to approximately 35 mmHg, by intracameral injection of polystyrene microbeads using a single-step, sclero-corneal tunnel approach with a 35G-gauge nanoneedle (#LNAN-3505LM, Saito Medical Instruments Inc., Tokyo, Japan) connected to 100 μl WPI Nanofil 100 microsyringe (World Precision Instruments, Inc., Sarasota, FL). Sterile 6 μm polystyrene microbeads in a 1×10^6 microbeads/ml solution (Molecular Probes, Eugene, OR, USA) were concentrated to obtain a 1×10^7 microbeads/ml solution. […] Ocular hypertension was monitored preoperatively, and at 3 days, 1 week, 2 weeks or 3 weeks after the beads were injected. IOP was measured using a laboratory tonometer (TonoLab, Icare, Finland). […]

[2] = system: TUNEL-positive RGCs; test: Ex vivo pressure-loaded retinas, TUNEL staining (apoptosis); assay type: cell-based, rat; conditions: 75 mmHg, 1 μM, single values
Protocol: Rat ex vivo Eyecup Preparation—Rat ex vivo eyecups were prepared from 28-32 day old male Sprague-Dawley rats (Charles River Laboratories International Inc., Wilmington, MA). The anterior half of the enucleated eyes was carefully removed to make eyecup preparations. Eyecups were placed at the bottom of a 100 ml glass beaker filled with aCSF (artificial cerebrospinal fluid) containing (in mM): 124 NaCl, 5 KCl, 2 MgSO4, 2 CaCl2, 1.25 NaH2PO4, 22 NaHCO3, and 10 glucose, and incubated at 30° C. for 24 hours using a closed pressure-loading system (FIG. 1C). pH was maintained at 7.35 to 7.40. […]
Acutely prepared eyecups were incubated in gassed aCSF for at least 1 h at 30° C. before pressure loading. […] For pressure loading, the 95% O2-5% CO2 gas mixture was infused until the pressure reading given by a manometer reached the appropriate level. The pressure was then locked by adjusting the control dial of the effusion valve, and monitored continuously for 24 h at 30° C.
Apoptosis—To visualize apoptotic cells, a DeadEnd™ Colorimetric TUNEL (TdT-mediated dUTP Nick-End Labeling) System (Promega, Madison, WI) was used according to the manufacturer's instructions. […] After the length of each retinal section was measured (Image-Pro Plus software), the cells were counted in the whole section length and the number of cells was normalized per 200 μm of retinal section. […]

SMILES	LC3-II expression (FIG. 6B), Average ([1]; Average of 4)	LC3-II expression (FIG. 6B), individual experiments 1-4 [1]	TUNEL Staining (number of TUNEL-positive RGCs), individual areas 1-5 [2]
CC(=O)[C@H]1CC[C@H]2[C@@H]3CC[C@H]4C[C@H](O)CC[C@]4(C)[C@H]3CC[C@]12C [AlloP, allopregnanolone]	3.00	2.73 and 3.32 and 2.82 and 3.11	7 per 200 μm of retina section and 0 per 200 μm of retina section (3×) and 2 per 200 μm of retina section
CC(=O)[C@@H]1CC[C@@H]2[C@H]3CC[C@@H]4C[C@@H](O)CC[C@@]4(C)[C@@H]3CC[C@]21C [ent-AlloP, ent-allopregnanolone]		4.96 and 4.97 and 4.27 and 5.04	10 per 200 μm of retina section and 1 per 200 μm of retina section and 0 per 200 μm of retina section (2×) and 2 per 200 μm of retina section
